Laboratory results: patent US12383624B2, “Cargo delivery system and composition comprising the same” (SEOUL NATIONAL UNIVERSITY R&DB FOUNDATION, priority 2018, dated 2025)
One block for each molecule: values may come before it.

Assays:
[1] = target: T1, p62 protein (Homo sapiens, UniProt Q13501); assay: oligomerization activity of p62 protein in cultured cells by immunoblotting; format: cell-based; parameters: dose or concentration left out as unconfirmed; conditions: HEK293 cell line, 2 hr, unlike DMSO control
T1 construct: endogenous in cells; host or cells: HEK293
Procedure: In order to evaluate the oligomerization activity efficacy of p62 protein according to examples of the disclosure, HEK293 cell line, which is human embryonic kidney-derived cell, was collected. The cell lines were treated with Example 3 (PBA 1104), Example 4 (PBA 1105), Example 5 (Anle F105), Example 8 (PHTPP 1304), Example 11 (BTA-1 1104), Example 12 (Curcumin 1204), Example 1 (ATC 1105), Example 2 (ATC 1104), Example 10 (Resv 1105), Example 13 (Rilu 204) according to the examples, YTK-1105 compound, which is an autophagy targeting ligand compound as a comparative example, and DMSO as a control […], 2 hr, respectively.
In order to measure intracellular p62 protein activation and oligomerization in cells according to the treatment with these compounds, the respective cells were dispensed into a 100 pi dish. The cells were collected after further culturing for 24 hours so that the cells were completely attached to the surface of the plate. 100 μl of lysis buffer (20 mM Tris (pH 7.4), 150 mM NaCl, 1% Triton X-100, 2 mM NaF, 2 mM EDTA, 2 mM beta-glycerophosphate, 5 mM sodium orthovanadate, 1 mM PMSF, leupeptin, aproteinin) were injected into each sample and the cells were lysed. Based on the measured total protein concentration, each sample was treated with test compounds at room temperature for 2 hours, and then a sample buffer was added and allowed to react at 95° C. for 10 minutes. […]

[2] = tested on: Tau; assay: target protein degradation by immunoblotting (Experimental Example 6); format: cell-based, human; conditions: 24 hours
Procedure: (§1) In order to evaluate the target proteion degradation efficacy by Examples 14 to 33 according the disclosure, the following experiment was conducted.
(§2) First, as cell lines primarily expressing the target protein, Human kidney-derived cancer cells, HEK293T (ATCC, CRL-3216), human prostate-derived cancer cells, LNcap (Korean Cell Line Bank, Korean Cell Line Research Foundation, KCLB No. 80018), mouse embryonic fibroblast, MEF (ATCC, SCRC-1008), human cervical cancer cells, HeLa (Korean Cell Line Bank, Korean Cell Line Research Foundation, KCLB No. 10002), human blood-derived cells, K562 (Korean Cell Line Bank, Korean Cell Line Research Foundation, KCLB No. 10243), human blood-derived cells, THP-1 (Korean Cell Line Bank, Korean Cell Line Research Foundation, KCLB No. 40202), human lung-derived cancer cells, A549 (Korean Cell Line Bank, Korean Cell Line Research Foundation, KCLB No. 10185), human breast-derived cancer cells, MCF7 (Korean Cell Line Bank, Korean Cell Line Research Foundation, KCLB No. 30022), human neuroblastoma, SH-SY5Y cell lines (Korean Cell Line Bank, Korean Cell Line Research Foundation, KCLB No. 22266), human pancreatic cancer cells, PANC-1 (Korean Cell Line Bank, Korean Cell Line Research Foundation, KCLB No. 21469) were cultured, respectively, in an incubator maintained at 5% carbon dioxide, using DMEM containing 10% FBS and 1% streptomycin/penicillin, RPMI1640, or MEM medium, and then the respective cells were dispensed in 12-well plate. Additional incubation was performed for 24 hours to ensure that each cell completely fixed to the surface of the plate.
(§3) In order to confirm whether Compounds A to W of Examples 14 to 33 degrade the target protein respectively, the cultured cells were treated with the compound of each example for 24 hours and then collected.
(§4) In this case, HEK293T, which is human kidney-derived cancer cells, LNcap, which is human prostate-derived cancer cells, and MEF cell line, which is mouse embryonic fibroblasts, were treated with Example 14 (Compound A). HEK293T, which is human kidney-derived cancer cells, was treated with Example 15 (Compound B). HEK293T cell line, which is human kidney-derived cancer cells, and HeLa cell line, which is cervical-derived cancer cells, were treated with Example 16 (Compound C). HEK293T cell line, which is human kidney-derived cancer cells, was treated with Example 17 (Compound D). K562 cell line, which is human blood-derived cells, was treated with Example 18 (Compound E). HEK293T cell line, which is human kidney-derived cancer cells, was treated with Example 19 (Compound F). THP-1 cell line, which is human blood-derived cells, was treated with Example 20 (Compound G). A549 cell line, which is human lung-derived cancer cells, was treated with Example 21 (Compound H). A549 cell line, which is human lung-derived cancer cells, was treated with Example 22 (Compound I). MCF7 cell line, which is human breast-derived cancer cells, was treated with Example 23 (Compound J). HEK293T cell line, which is […], was treated with Example 24 (Compound L). SH-SY5Y, which is human neuroblastoma, and HeLa cell line, which is cervical-derived cancer cells, were treated with Example 25 (Compound M). THP-1 cell line, which is human blood-derived cells, was treated with Example 26 (Compound P). SH-SY5Y, which is human neuroblastoma, and HeLa cell line, which is cervical-derived cancer cells, were treated with Example 27 (Compound Q). SH-SY5Y, which is human neuroblastoma, and HeLa cell line, which is cervical-derived cancer cells, were treated with Example 28 (Compound R). HeLa cell line, a human cervical-derived cancer cell, was treated with Example 29 (Compound S). SH-SY5Y cell line, which is human neuroblastoma, was treated with Example 30 (Compound T). SH-SY5Y cell line, which is human neuroblastoma, was treated with Example 31 (Compound U). PANC-1 cell line, which is human pancreatic-derived cancer cells, was treated with Example 32 (Compound V). […]

[3] = target: T2, Desmin Mut(L385P) (Homo sapiens, UniProt P17661, L385P); assay: as above; format: cell-based; conditions: 24 hours
T2 construct: expressed in transfected cells; host or cells: HeLa (Compound S); SH-SY5Y or HeLa (Compounds M, Q, R)
Procedure: as §1, §2, §3, §4

[4] = tested on: Cyclin D1; assay: as above; format: cell-based, human; conditions: A549 cell line, 24 hours
Procedure: as §1, §2, §3, §4

[5] = target: T3, STAT3 (Homo sapiens, UniProt P40763); assay: as above; format: cell-based; conditions: A549 cell line, 24 hours
T3 construct: as cell lines primarily expressing the target protein; endogenous in cells; host or cells: A549
Procedure: as §1, §2, §3, §4

[6] = target: T4, p-STAT3 (Homo sapiens, UniProt P40763); assay: as above; format: cell-based; conditions: A549 cell line, 24 hours
T4 construct: endogenous in cells; host or cells: A549
Procedure: as §1, §2, §3, §4

[7] = target: T5, RIPK2 (Homo sapiens, UniProt O43353); assay: as above; format: cell-based; conditions: THP-1 cell line, 24 hours
T5 construct: as cell lines primarily expressing the target protein; endogenous in cells; host or cells: THP-1
Procedure: as §1, §2, §3, §4

[8] = target: T6, α-synuclein(A53T) (Homo sapiens, UniProt P37840, A53T); assay: as above; format: cell-based; conditions: 24 hours
T6 construct: expressed in transfected cells; host or cells: SH-SY5Y (Compound U); SH-SY5Y or HeLa (Compound M)
Procedure: as §1, §2, §3, §4

[9] = SH-SY5Y and HeLa cell lines treated

T2 sequence (P17661 whole entry L385P): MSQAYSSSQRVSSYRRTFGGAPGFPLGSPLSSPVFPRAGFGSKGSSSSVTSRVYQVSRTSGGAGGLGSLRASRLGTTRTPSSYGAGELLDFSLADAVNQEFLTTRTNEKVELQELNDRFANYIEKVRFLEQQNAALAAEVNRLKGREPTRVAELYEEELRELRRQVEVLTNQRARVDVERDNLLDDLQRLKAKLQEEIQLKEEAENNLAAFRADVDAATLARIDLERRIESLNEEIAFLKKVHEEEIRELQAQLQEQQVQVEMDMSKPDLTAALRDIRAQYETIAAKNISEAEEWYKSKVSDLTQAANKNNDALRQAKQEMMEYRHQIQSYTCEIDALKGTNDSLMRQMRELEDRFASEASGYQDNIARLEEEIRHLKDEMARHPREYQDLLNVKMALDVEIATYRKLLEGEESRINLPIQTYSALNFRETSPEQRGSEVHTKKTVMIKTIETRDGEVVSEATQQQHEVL
T5 sequence (O43353 whole entry): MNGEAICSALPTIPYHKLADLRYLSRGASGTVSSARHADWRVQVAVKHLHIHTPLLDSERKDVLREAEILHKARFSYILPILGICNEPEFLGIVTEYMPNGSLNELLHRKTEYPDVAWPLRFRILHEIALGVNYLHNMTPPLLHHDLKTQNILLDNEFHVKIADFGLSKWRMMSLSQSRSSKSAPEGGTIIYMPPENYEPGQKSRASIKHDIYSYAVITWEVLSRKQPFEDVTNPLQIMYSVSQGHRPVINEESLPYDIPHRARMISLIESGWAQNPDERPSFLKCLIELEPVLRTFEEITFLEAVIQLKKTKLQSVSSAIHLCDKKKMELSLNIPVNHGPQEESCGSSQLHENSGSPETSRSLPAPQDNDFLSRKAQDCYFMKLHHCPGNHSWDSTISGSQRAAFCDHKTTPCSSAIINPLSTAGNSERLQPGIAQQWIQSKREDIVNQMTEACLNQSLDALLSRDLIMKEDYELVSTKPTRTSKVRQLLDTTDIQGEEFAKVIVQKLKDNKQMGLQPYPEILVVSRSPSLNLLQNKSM
T1 sequence (Q13501 whole entry): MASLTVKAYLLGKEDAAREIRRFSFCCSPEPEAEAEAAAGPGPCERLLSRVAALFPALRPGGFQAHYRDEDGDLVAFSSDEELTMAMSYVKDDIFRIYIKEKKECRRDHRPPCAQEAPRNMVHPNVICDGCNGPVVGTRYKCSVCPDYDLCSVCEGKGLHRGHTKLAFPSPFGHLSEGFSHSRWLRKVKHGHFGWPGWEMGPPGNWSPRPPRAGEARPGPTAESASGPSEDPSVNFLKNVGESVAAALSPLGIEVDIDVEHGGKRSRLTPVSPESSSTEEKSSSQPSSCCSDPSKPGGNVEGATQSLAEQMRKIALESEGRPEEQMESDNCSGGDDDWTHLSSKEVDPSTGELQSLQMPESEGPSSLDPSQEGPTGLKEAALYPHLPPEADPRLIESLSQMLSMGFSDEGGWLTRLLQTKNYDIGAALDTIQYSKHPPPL
T4 sequence (P40763 whole entry): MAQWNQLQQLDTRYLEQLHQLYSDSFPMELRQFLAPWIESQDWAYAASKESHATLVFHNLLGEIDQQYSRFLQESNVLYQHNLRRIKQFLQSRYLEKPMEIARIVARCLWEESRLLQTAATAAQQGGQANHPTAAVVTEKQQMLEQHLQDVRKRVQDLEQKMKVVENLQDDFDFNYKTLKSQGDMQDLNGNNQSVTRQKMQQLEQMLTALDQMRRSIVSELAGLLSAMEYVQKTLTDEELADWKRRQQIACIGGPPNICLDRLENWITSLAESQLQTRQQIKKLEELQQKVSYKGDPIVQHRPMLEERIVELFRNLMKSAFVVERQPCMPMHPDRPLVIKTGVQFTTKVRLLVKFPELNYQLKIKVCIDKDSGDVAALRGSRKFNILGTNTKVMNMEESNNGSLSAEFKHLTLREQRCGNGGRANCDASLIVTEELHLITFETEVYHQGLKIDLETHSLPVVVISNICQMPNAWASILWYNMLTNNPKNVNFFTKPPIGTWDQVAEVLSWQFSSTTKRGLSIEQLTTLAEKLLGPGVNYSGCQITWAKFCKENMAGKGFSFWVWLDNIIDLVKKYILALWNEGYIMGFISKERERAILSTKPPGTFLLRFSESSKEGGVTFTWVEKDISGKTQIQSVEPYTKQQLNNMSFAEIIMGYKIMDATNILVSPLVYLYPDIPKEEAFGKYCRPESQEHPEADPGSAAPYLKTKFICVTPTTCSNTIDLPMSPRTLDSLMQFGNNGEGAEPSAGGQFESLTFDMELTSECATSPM
T3 sequence (P40763 whole entry): as above

- monomer of p62 proteins [1]: decrease
- p62 oligomers and high-molecular aggregates [1]: increase
SMILES: OCCNCc1ccc(OCc2ccccc2)c(OCc2ccccc2)c1 [YTK-1105]

- degradation of target protein Desmin Mut(L385P) (decrease in level vs Control) [3, 9]: can be degraded
SMILES: O=C(CCCc1ccccc1)NCCOCCOCCOCCOCCOCCOCCOCCNCc1ccc(OCc2ccccc2)c(OCc2ccccc2)c1 [Example 28, N-(1-(3,4-bis(benzyloxy)phenyl)-5,8,11,14,17,20,23-heptaoxa-2-azapentacosan-25-yl)-4-phenylbutanamide]
- degradation of target protein Tau (decrease in level vs Control) [2, 9]: can be degraded

- degradation of target protein α-syn. Mut(A53T) (decrease in level vs Control) ([8]; SH-SY5Y cell line): can be degraded
SMILES: CN(CCOCCOCCOCCNCc1ccc(OCc2ccccc2)c(OCc2ccccc2)c1)c1ccc2nc3ccc(=[N+](C)C)cc-3sc2c1 [Example 31, N-(7-((1-(3,4-bis(benzyloxy)phenyl)-5,8,11-trioxa-2-azatridecan-13-yl) (methyl)amino)-3H-phenothiazin-3-ylidene)-N-methylmethanaminium 2,2,2-trifluoroacetate]
- degradation of target protein Tau (decrease in level vs Control) ([2]; SH-SY5Y cell line): can be degraded

- degradation of target protein Desmin Mut(L385P) (decrease in level vs Control) ([3]; HeLa cell line): can be degraded
SMILES: O=C(CCCc1ccccc1)NCCOCCOCCOCCNC[C@@H](O)COc1ccc(OCc2ccc(F)cc2)c(OCc2ccc(F)cc2)c1 [Example 29, (R)—N-(15-(3,4-bis((4-fluorobenzyl)oxy)phenoxy)-14-hydroxy-3,6,9-trioxa-12-azapentadecyl)-4-phenylbutanamide]

The remaining lines, values behind:

SMILES: O=C(CCCc1ccccc1)NCCOCCOCCOCCOCCOCCNCc1ccc(OCc2ccccc2)c(OCc2ccccc2)c1 [Example 27, N-(1-(3,4-bis(benzyloxy)phenyl)-5,8,11,14,17-pentaoxa-2-azanonadecan-19-yl)-4-phenylbutanamide]
- degradation of target protein Tau (decrease in level vs Control) [2, 9]: can be degraded
- degradation of target protein Desmin Mut(L385P) (decrease in level vs Control) [3, 9]: can be degraded

SMILES: NC(=O)CC[C@H](NC(=O)[C@@H]1CC[C@@H]2CCN(C(=O)CCCOCCOCCOCCOCCNCc3ccc(OCc4ccccc4)c(OCc4ccccc4)c3)C[C@H](NC(=O)c3cc4cc(C(F)(F)P(=O)(O)O)ccc4[nH]3)C(=O)N21)C(=O)NC(c1ccccc1)c1ccccc1 [Example 22, ((2-(((5S,8S,10aR)-8-(((S)-5-amino-1-(benzhydrylamino)-1,5-dioxopentan-2-yl)carbamoyl)-3-(1-(3,4-bis(benzyloxy)phenyl)-5,8,11,14-tetraoxa-2-azaoctadecan-18-oyl)-6-oxodecahydropyrrolo[1,2-a][1,5]diazocin-5-yl)carbamoyl)-1H-indol-5-yl)difluoromethyl)phosphonic acid]
- degradation of target protein Cyclin D1 (decrease in level vs Control) [4]: can be degraded
- degradation of target protein STAT3 (decrease in level vs Control) [5]: can be degraded
- degradation of target protein p-STAT3 (decrease in level vs Control) [6]: can be degraded

SMILES: NC(=O)CC[C@H](NC(=O)[C@@H]1CC[C@@H]2CCN(C(=O)CCCOCCOCCOCCOCCNC[C@@H](O)COc3ccc(OCc4ccc(F)cc4)c(OCc4ccc(F)cc4)c3)C[C@H](NC(=O)c3cc4cc(C(F)(F)P(=O)(O)O)ccc4[nH]3)C(=O)N21)C(=O)NC(c1ccccc1)c1ccccc1 [Example 21, ((2-(((5S,8S,10aR)-8-(((S)-5-amino-1-(benzhydrylamino)-1,5-dioxopentan-2-yl)carbamoyl)-3-((R)-1-(3,4-bis((4-fluorobenzyl)oxy)phenoxy)-2-hydroxy-7,10,13,16-tetraoxa-4-azaicosan-20-oyl)-6-oxodecahydropyrrolo[1,2-a][1,5]diazocin-5-yl)carbamoyl)-1H-indol-5-yl)difluoromethyl)phosphonic acid]
- degradation of target protein Cyclin D1 (decrease in level vs Control) [4]: can be degraded
- degradation of target protein STAT3 (decrease in level vs Control) [5]: can be degraded
- degradation of target protein p-STAT3 (decrease in level vs Control) [6]: can be degraded

SMILES: CC(C)(C)S(=O)(=O)c1cc2c(Nc3ccc4scnc4c3)ncnc2cc1OCCNCCOCCOCCNCc1cccc(OCc2ccccc2)c1 [Example 20, N-(7-((1-(3-(benzyloxy)phenyl)-5,8-dioxa-2,11-diazatridecan-13-yl)oxy)-6-(tert-butylsulfonyl)quinazolin-4-yl)benzo[d]thiazol-5-amine]
- degradation of target protein RIPK2 (decrease in level vs Control) [7]: can be degraded

SMILES: CC(C)(C)S(=O)(=O)c1cc2c(Nc3ccc4scnc4c3)ncnc2cc1OCCNCCOCCOCCOCCOCCOCCNC[C@@H](O)COc1ccc(OCc2ccc(F)cc2)c(OCc2ccc(F)cc2)c1 [Example 26, (R)-1-((4-(benzo[d]thiazol-5-ylamino)-6-(tert-butylsulfonyl)quinazolin-7-yl)oxy)-24-(3,4-bis((4-fluorobenzyl)oxy)phenoxy)-6,9,12,15,18-pentaoxa-3,21-diazatetracosan-23-ol]
- degradation of target protein RIPK2 (decrease in level vs Control) [7]: can be degraded

SMILES: O=C(c1cc(-c2cc3c(cc2C(=O)N2Cc4ccccc4C[C@H]2CN2CCN(CCOCCOCCOCCOCCNCc4ccc(OCc5ccccc5)c(OCCc5ccccc5)c4)CC2)OCO3)n2c1CCCC2)N(c1ccccc1)c1ccc(O)cc1 [Example 25, (S)-3-(6-(3-((4-(1-(4-(benzyloxy)-3-phenethoxyphenyl)-5,8,11,14-tetraoxa-2-azahexadecan-16-yl)piperazin-1-yl)methyl)-1,2,3,4-tetrahydroisoquinoline-2-carbonyl)benzo[d][1,3]dioxol-5-yl)-N-(4-hydroxyphenyl)-N-phenyl-5,6,7,8-tetrahydroindolizine-1-carboxamide]
- degradation of target protein Tau (decrease in level vs Control) [2, 9]: can be degraded
- degradation of target protein Desmin Mut(L385P) (decrease in level vs Control) [3, 9]: can be degraded
- degradation of target protein α-synuclein(A53T) (decrease in level vs Control) [8, 9]: can be degraded
